Experimental data reported in PubChem BioAssay AID328 (DTP/NCI, 2004).
Several values for one entry are separate records, joined by “and”; a condition that tells them apart may be missing. Equal entries are not always repeated. Inconclusive results and toxic doses are left out.

Test system: BDF1 mice, P388 leukemia ip, median survival T/C
Assay: NCI In Vivo Anticancer Drug Screen. Data for tumor model P388 Leukemia (intraperitoneal) in B6D2F1 (BDF1) mice
Details: endpoint: median survival time, higher = longer survival
In short: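 Read-out is survival of treated animals expressed relative to the vehicle group, as a T/C ratio.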

[1] = dose: 25.0 mg/kg/injection, schedule: Q01DX009 (ip), vehicle: Klucel (hydroxypropylcellulose) (HPC)
[2] = dose: 100.0 mg/kg/injection, schedule: Q04DX003 (ip), vehicle: water
[3] = dose: 200.0 mg/kg/injection, schedule: Q04DX003 (ip), vehicle: water
[4] = dose: 100.0 mg/kg/injection, schedule: Q01DX009 (ip), vehicle: saline

SMILES: CC(=O)C(=Cc1c[nH]c2ccccc12)C(C)=O
- T/C (dose: 12.5 mg/kg/injection, schedule: Q01DX009 (ip), vehicle: Klucel (hydroxypropylcellulose) (HPC)): 92 % of control
- T/C [1]: 90 % of control
- T/C (dose: 100.0 mg/kg/injection, schedule: Q01DX009 (ip), vehicle: Klucel (hydroxypropylcellulose) (HPC)): 110 % of control
- T/C [2]: 105 % of control
- T/C [3]: 120 % of control

SMILES: C1CC[N-]CC1.C1CC[N-]CC1.C1CC[N-]CC1.C1CC[N-]CC1.CC(=N\[O-])/C(C)=N/O.CC(=N\[O-])/C(C)=N/O.[Cl-].[Cl-].[Cl][Rh][Cl].[Rh+3]
- T/C (dose: 50.0 mg/kg/injection, schedule: Q01DX009 (ip), vehicle: saline): 98 % of control
- T/C [4]: 86 % of control
- T/C (dose: 200.0 mg/kg/injection, schedule: Q01DX009 (ip), vehicle: saline): 86 % of control
- T/C (dose: 400.0 mg/kg/injection, schedule: Q01DX009 (ip), vehicle: saline): 95 % of control

SMILES: O=P(N1CCCCCC1)(N1CC1)N1CC1
- T/C (dose: 5.0 mg/kg/injection, schedule: Q01DX009 (ip), vehicle: saline): 168 % of control
- T/C (dose: 6.25 mg/kg/injection, schedule: Q04DX003 (ip), vehicle: saline): 95 % of control
- T/C (dose: 7.0 mg/kg/injection, schedule: Q04DX003 (ip), vehicle: saline): 112 % of control
- T/C (dose: 8.0 mg/kg/injection, schedule: Q01DX009 (ip), vehicle: saline): 157 % of control and 222 % of control
- T/C (dose: 11.0 mg/kg/injection, schedule: Q04DX003 (ip), vehicle: saline): 150 % of control
- T/C (dose: 16.5 mg/kg/injection, schedule: Q04DX003 (ip), vehicle: saline): 180 % of control
- T/C (dose: 17.0 mg/kg/injection, schedule: Q04DX003 (ip), vehicle: saline): 166 % of control and 181 % of control
- T/C (dose: 25.0 mg/kg/injection, schedule: Q04DX003 (ip), vehicle: saline): 218 % of control [middle of 4 runs]
- T/C (dose: 50.0 mg/kg/injection, schedule: Q04DX003 (ip), vehicle: saline): 162 % of control

SMILES: CC(=O)n1ncc2ccc([N+](=O)[O-])cc21
- T/C (dose: 6.25 mg/kg/injection, schedule: Q01DX009 (ip), vehicle: water): 103 % of control
- T/C (dose: 12.5 mg/kg/injection, schedule: Q01DX009 (ip), vehicle: water): 97 % of control and 111 % of control
- T/C (dose: 25.0 mg/kg/injection, schedule: Q01DX009 (ip), vehicle: water): 94 % of control (2×) and 108 % of control
- T/C (dose: 50.0 mg/kg/injection, schedule: Q01DX009 (ip), vehicle: water): 94 % of control and 99 % of control
- T/C (dose: 100.0 mg/kg/injection, schedule: Q01DX009 (ip), vehicle: water): 94 % of control and 97 % of control and 105 % of control
- T/C [2]: 111 % of control
- T/C (dose: 200.0 mg/kg/injection, schedule: Q01DX009 (ip), vehicle: water): 100 % of control
- T/C [3]: 106 % of control
- T/C (dose: 400.0 mg/kg/injection, schedule: Q01DX009 (ip), vehicle: water): 96 % of control
- T/C (dose: 400.0 mg/kg/injection, schedule: Q04DX003 (ip), vehicle: water): 98 % of control

SMILES: Nc1ccc(NS(=O)(=O)Cc2ccccc2)cc1
- T/C (dose: 25.0 mg/kg/injection, schedule: Q01DX001 (ip), vehicle: saline with Tween-80): 100 % of control
- T/C (dose: 50.0 mg/kg/injection, schedule: Q01DX001 (ip), vehicle: saline with Tween-80): 100 % of control
- T/C (dose: 100.0 mg/kg/injection, schedule: Q01DX001 (ip), vehicle: saline with Tween-80): 100 % of control

SMILES: O=C(Nc1ccc(NC(=O)Nc2cccc(C3=NCCCN3)c2)cc1)Nc1ccc(C2=NCCCN2)cc1
- T/C (dose: 6.6 mg/kg/injection, schedule: Q01DX009 (ip), vehicle: saline with Tween-80): 154 % of control
- T/C (dose: 10.0 mg/kg/injection, schedule: Q01DX009 (ip), vehicle: saline with Tween-80): 181 % of control

SMILES: C=CCN(CC=C)P(=O)(N1CC1)N1CC1C (stereo unspecified)
- T/C (dose: 0.25 mg/kg/injection, schedule: Q04DX003 (ip), vehicle: saline): 120 % of control
- T/C (dose: 0.31 mg/kg/injection, schedule: Q01DX009 (ip), vehicle: saline): 100 % of control
- T/C (dose: 0.5 mg/kg/injection, schedule: Q01DX009 (ip), vehicle: saline): 156 % of control and 158 % of control
- T/C (dose: 0.83 mg/kg/injection, schedule: Q01DX009 (ip), vehicle: saline): 150 % of control and 166 % of control and 173 % of control
- T/C (dose: 1.65 mg/kg/injection, schedule: Q04DX003 (ip), vehicle: saline): 159 % of control
- T/C (dose: 1.8 mg/kg/injection, schedule: Q01DX009 (ip), vehicle: saline): 91 % of control
- T/C (dose: 2.5 mg/kg/injection, schedule: Q04DX003 (ip), vehicle: saline): 163 % of control and 190 % of control
- T/C (dose: 3.75 mg/kg/injection, schedule: Q04DX003 (ip), vehicle: saline): 163 % of control
- T/C (dose: 5.0 mg/kg/injection, schedule: Q04DX003 (ip), vehicle: saline): 90 % of control

SMILES: N#CCOC(=O)C1(NC(=O)c2ccccc2)CC1c1ccccc1 (stereo unspecified)
- T/C (dose: 25.0 mg/kg/injection, schedule: Q01DX005 (ip), vehicle: saline with Tween-80): 95 % of control
- T/C (dose: 50.0 mg/kg/injection, schedule: Q01DX005 (ip), vehicle: saline with Tween-80): 90 % of control
- T/C (dose: 100.0 mg/kg/injection, schedule: Q01DX005 (ip), vehicle: saline with Tween-80): 92 % of control

SMILES: S=C(S)NCCNC(=S)S
- T/C (dose: 40.0 mg/kg/injection, schedule: Q01DX009 (ip), vehicle: saline): 120 % of control
- T/C (dose: 60.0 mg/kg/injection, schedule: Q01DX009 (ip), vehicle: saline): 108 % of control
- T/C (dose: 85.0 mg/kg/injection, schedule: Q04DX003 (ip), vehicle: saline): 109 % of control
- T/C (dose: 88.0 mg/kg/injection, schedule: Q01DX009 (ip), vehicle: saline): 100 % of control
- T/C (dose: 88.0 mg/kg/injection, schedule: Q04DX003 (ip), vehicle: saline): 109 % of control
- T/C [4]: 115 % of control
- T/C (dose: 100.0 mg/kg/injection, schedule: Q04DX003 (ip), vehicle: saline): 109 % of control and 118 % of control
- T/C (dose: 132.0 mg/kg/injection, schedule: Q04DX003 (ip), vehicle: saline): 104 % of control
- T/C (dose: 150.0 mg/kg/injection, schedule: Q01DX009 (ip), vehicle: saline): 115 % of control
- T/C (dose: 300.0 mg/kg/injection, schedule: Q04DX003 (ip), vehicle: saline): 109 % of control
- T/C (dose: 350.0 mg/kg/injection, schedule: Q01DX009 (ip), vehicle: saline): 120 % of control
- T/C (dose: 400.0 mg/kg/injection, schedule: Q04DX003 (ip), vehicle: saline): 100 % of control and 118 % of control

SMILES: Cc1n[nH]c(=O)c2c3ccccc3nn12
- T/C (dose: 100.0 mg/kg/injection, schedule: Q04DX002 (ip), vehicle: saline with Tween-80): 103 % of control
- T/C (dose: 200.0 mg/kg/injection, schedule: Q04DX002 (ip), vehicle: saline with Tween-80): 110 % of control
- T/C (dose: 400.0 mg/kg/injection, schedule: Q04DX002 (ip), vehicle: saline with Tween-80): 107 % of control

SMILES: COC1=CC=C2C3Cc4ccc(OC)c(O)c4C2(C1)CN3C (stereo unspecified)
- T/C (dose: 3.12 mg/kg/injection, schedule: Q01DX009 (ip), vehicle: Klucel (hydroxypropylcellulose) (HPC)): 87 % of control
- T/C (dose: 6.25 mg/kg/injection, schedule: Q01DX009 (ip), vehicle: Klucel (hydroxypropylcellulose) (HPC)): 87 % of control
- T/C [1]: 100 % of control

SMILES: CCC[CH2][Sn]1([CH2]CCC)[O]C(=O)C[S]1
- T/C (dose: 0.78 mg/kg/injection, schedule: Q04DX003 (ip), vehicle: saline with Tween-80): 100 % of control
- T/C (dose: 1.56 mg/kg/injection, schedule: Q04DX003 (ip), vehicle: saline with Tween-80): 113 % of control
- T/C (dose: 2.0 mg/kg/injection, schedule: Q04DX003 (ip), vehicle: saline with Tween-80): 112 % of control
- T/C (dose: 3.0 mg/kg/injection, schedule: Q04DX003 (ip), vehicle: saline with Tween-80): 116 % of control

SMILES: COC(=O)/C(=N\NS(=O)(=O)c1ccc(C)cc1)c1ccccc1
- T/C (dose: 25.0 mg/kg/injection, schedule: Q04DX003 (ip), vehicle: Klucel (hydroxypropylcellulose) (HPC)): 98 % of control
- T/C (dose: 50.0 mg/kg/injection, schedule: Q04DX003 (ip), vehicle: Klucel (hydroxypropylcellulose) (HPC)): 100 % of control
- T/C (dose: 100.0 mg/kg/injection, schedule: Q04DX003 (ip), vehicle: Klucel (hydroxypropylcellulose) (HPC)): 94 % of control
- T/C (dose: 200.0 mg/kg/injection, schedule: Q04DX003 (ip), vehicle: Klucel (hydroxypropylcellulose) (HPC)): 93 % of control
